Reference: PMC11477209, “Toxicological Evaluation of Kaempferol and Linearolactone as Treatments for Amoebic Liver Abscess Development in Mesocricetus auratus” (International Journal of Molecular Sciences, 2024)
≈ marks a conversion by molar mass, not a printed value.

Legend:
BEAS-2B cells = experiment: MTT cytotoxicity assay; format: cell-based, human; settings: 24 h
[1] = system: E. histolytica trophozoites; experiment: Cell morphology by confocal microscopy (actin); format: cell-based, Entamoeba histolytica; settings: phalloidin-rhodamine, treatment with IC50
Description: Then, the culture medium was removed, and the adhered cells were fixed with 4% paraformaldehyde for 1 h at 37 °C. The samples were washed three times with 1× PBS and incubated with 1:50 phalloidin–rhodamine (R415, Invitrogen; Carlsbad, CA, USA) for 1 h at 37 °C. Finally, the cells were washed, mounted with VectaShield/DAPI medium (Vector Laboratories; Newark, CA, USA), and observed with a confocal microscope (LSM-700, Zeiss; Oberkochen, Germany).

[2] = Paraclinical analysis (serum biochemistry, hematic biometry) in ALA hamsters; format: in vivo, Mesocricetus auratus; design: BUN: unit not given here
Description: Serum was obtained by centrifugation at 3500 rpm and frozen at −70 °C until analysis. Hematic biometry was performed in a hematology autoanalyzer system (BC-2300, Mindray; Shenzhen, China), and biochemical parameters were made on an automatic medical system (Prestige 24i, Tokyo Boeki; Kanagawa, Japan).

[3] = in vivo
Description: After blood samples were obtained, the hamsters were sacrificed with a lethal dose of sodium pentobarbital, followed by a cervical fracture. They were mounted on a dissecting board for the necropsy. A complete mid-laparotomy was performed to remove the lungs, spleen, heart, liver, and kidneys. An excisional biopsy was performed to recover the ALA lesions for morphometric analysis. The organs and ALA lesions were rinsed with 1× PBS, weighed, and adherent tissue was removed. […] Later, the inclusion protocol was performed to obtain histological sections (3 μm thick) with a rotatory microtome (RM2125-RTS, Leica; Wetzlar, Germany). Tissue slices were stained with hematoxylin-eosin (Merck; Rahway, NJ, USA), mounted on coverslips with Entellan^TM-New (Merck; Rahway, NJ, USA), and observed with optical microscopy (Eclipse 80i, Nikon; Tokio, Japan).

[4] = system: E. histolytica trophozoites (virulent HM-1 strain); settings: 48 h
[5] = system: E. histolytica trophozoites; settings: 48 h; ref [12],[13]; read-out: IC50 E. histolytica trophozoites (antiproliferative activity); cited from earlier work
[6] = blood, ALA hamsters, i.p. 4 days
[7] = serum, ALA hamsters, i.p. 4 days
[8] = MTZ 0.16, KP 31.6, LL 15.6 μg/mL

C[C@]12C[C@H](c3ccoc3)OC(=O)[C@H]1CCC13COC(=O)C1=CC=C[C@H]32 (stereo partly drawn) [LL, (4S,7R,9R,10S)-7-(furan-3-yl)-9-methyl-6,16-dioxatetracyclo[8.7.0.01,14.04,9]heptadeca-11,13-diene-5,15-dione]
biological activity symbol on IC50 BEAS-2B (BEAS-2B cells): - | IC50 (BEAS-2B cells; Homo sapiens, BEAS-2B): 200 µg/mL (≈ 588 µM) | actin cytoskeleton alteration [1]: reduction in polymerized actin | AL/GGT ratio ([2]; ALA prognosis ratio): 0.23 ± 0.038 | Erythrocytes [2, 6]: 6.7 ± 0.4 x10 6/mm3 | Hematocrit [2, 6]: 45.4 ± 2.9% | Hemoglobin [2, 6]: 16 ± 0.8 g/dL | Leukocytes [2, 6]: 7.1 ± 1.8 x100/mm3 | MCH [2, 6]: 24 ± 0.3 pg | MCHC [2, 6]: 35 ± 0.9 g/dL | MCV [2, 6]: 68 ± 2.2 fL | MPV [2, 6]: 7.7 ± 0.5 fL | PCT [2, 6]: 0.2 ± 0.0% | PDW [2, 6]: 9.4 ± 0.3 fL | Platelets [2, 6]: 303 ± 31 x106/μL | RDW-CV [2, 6]: 14.7 ± 0.6 fL | RDW-SD [2, 6]: 40 ± 2.3 fL | TB/AL ratio ([2]; drug toxicity ratio): 0.22 ± 0.005 | neutrophil/lymphocyte ratio ([2]; hematic ratio): 1.66 ± 1.26 | BUN/CR ratio ([2]; kidney damage ratio): 31.6 ± 9.8 | urea/CR ratio ([2]; kidney damage ratio): 73.1 ± 26 | ALP/TB ratio ([2]; liver injury ratio): 10.85 ± 1.28 | ALT/ALP ratio ([2]; liver injury ratio): 0.25 ± 0.05 | AST/ALT ratio (De Ritis ratio) ([2]; liver injury ratio): > 1 | Band neutrophils ([2]; manual differential analysis): 0% | Basophils ([2]; manual differential analysis): 0% | Eosinophils ([2]; manual differential analysis): 0% | Immature forms ([2]; manual differential analysis): 0% | Lymphocytes ([2]; manual differential analysis): 44 ± 21% | Monocytes ([2]; manual differential analysis): 0% | Segmented neutrophils ([2]; manual differential analysis): 56 ± 21% | ALT (GPT) [2, 7]: 89 ± 16 U/L | AST (GOT) [2, 7]: 163 ± 22 U/L | Albumin [2, 7]: 1.7 ± 0.1 g/dL | Alkaline phosphatase [2, 7]: 355 ± 9.5 U/L | BUN [2, 7]: 16.1 ± 1.5 | Cholesterol [2, 7]: 105 ± 24 mg/dL | Creatinine [2, 7]: 0.54 ± 0.2 mg/dL | Direct bilirubin [2, 7]: 0.26 ± 0.04 mg/dL | GGT [2, 7]: 7.5 ± 2.1 U/L | Glucose [2, 7]: 123 ± 20 mg/dL | Indirect bilirubin [2, 7]: 0.12 ± 0.0 mg/dL | Total bilirubin [2, 7]: 0.37 ± 0.04 mg/dL | Total protein [2, 7]: 5.3 ± 0.3 g/dL | Triglycerides [2, 7]: 132 ± 8.7 mg/dL | Urea [2, 7]: 37 ± 6.01 mg/dL | Heart largest diameter [3]: 1.1 ± 0.07 cm | Heart weight [3]: 0.38 ± 0.08 g | Kidneys largest diameter [3]: 1.1 ± 0.08 cm | Kidneys weight [3]: 0.49 ± 0.07 g | Liver largest diameter [3]: 3.94 ± 0.16 cm | Liver weight [3]: 5.5 ± 0.9 g | Lungs largest diameter [3]: 2.4 ± 0.1 cm | Lungs weight [3]: 0.74 ± 0.06 g | Spleen largest diameter [3]: 3.4 ± 0.4 cm | Spleen weight [3]: 0.26 ± 0.05 g | biological activity symbol on IC50 HM-1 [4]: + | IC50 HM-1 ([4]; flow cytometry): < 7.8 µg/mL | apoptotic trophozoites [4, 8]: 4.3% | necrotic trophozoites [4, 8]: 90.1% | decrease of size and granularity of the cell population ([4]; MTZ 0.16, KP 31.6, LL 15.6 μg/mL, vs Vh): 66% | IC50 [5]: 22.9 µM
